Experimental data published in patent US8178496B2, “Photoreactive regulator of glutamate receptor function and methods of use thereof” (The Regents of the University of California, priority 2007, dated 2012).
“Also recorded” adds a separate entry of the source.

Key:
wild-type iGluR6(Q) = target: T1, wild-type iGluR6(Q) (Homo sapiens, UniProt Q13002); experiment: Whole-cell voltage clamp recording in HEK293 cells expressing iGluR6(Q); format: cell-based
T1 construct: expressed in transfected cells; host or cells: HEK293
Protocol: (§1) HEK293 cells were plated at approximately 3×10^6 cells/ml on poly-L-lysine-coated glass coverslips (Deutsche Spiegelglas, Carolina Biological) and maintained in DMEM with 5% newborn calf serum, 0.2 mg/ml streptomycin, and 200 U/ml penicillin at 37° C. Cells were transiently transfected with various plasmids using lipofectamine 2000 (Invitrogen). The amount of total transfected ionotropic glutamate receptor-2 (iGluR2), iGluR5, and iGluR6 DNA and enhanced yellow fluorescent protein (EYFP) fusion DNA per 0.5 mL well was fixed at 0.7 μg and 0.3 μg, respectively. All recordings were carried out 24 to 48 h after transfection.
(§2) Patch clamp recordings were carried out using an Axopatch 200A amplifier in the whole cell mode. HEK cells were voltage clamped at −60 mV and hippocampal neurons were current clamped at −65 mV. Pipettes had resistances 2-6 MΩ. For experiments in HEK cells, pipettes were filled with a solution containing (in mM): 145 CsCl, 5 EGTA, 0.5 CaCl2, 1.0 MgCl2 and 10 HEPES at pH7.2 (CsOH). The extracellular solution contained (in mM): 135 NaCl, 5.4 KCl, 0.9 MgCl2, 1.8 CaCl2, and 10 HEPES at pH 7.6 (NaOH). Cells were preincubated for 10 min in control solution containing 300 mg/l Concanavalin A type VI (Sigma) in order to block desensitization. For experiments in hippocampal neurons, pipettes were filled with a solution containing (in mM): 10 NaCl, 1 EGTA, 135 K-gluconate, 2.0 MgCl2, 10 HEPES and 2 Mg-ATP at pH7.4 (KOH). The extracellular solution contained (in mM): 138 NaCl, 1.5 KCl, 1.2 MgCl2, 2.5 CaCl2, 10 glucose and 10 HEPES at pH 7.3 (NaOH). L-Glutamate, DNQX, and compound 2 were applied as reported in text and figures with complete exchange of the bath solution occurring in less than 10 sec. Compound 2 was not pre-irradiated prior to perfusion, but the bath and coverslip were continuously under illumination as denoted in traces. Following complete exchange of the bath, perfusion of 2 was stopped prior to switching illumination wavelengths. Illumination was applied using a TILL Photonics Polychrome V monochromator through a 40×/0.60 W objective (power output: 4.8 mW/mm^2 at 500 nm and 1.8 mW/mm^2 at 380 nm, as measured with a Newport optical power meter). Data was recorded with pClamp software, which was also used to automatically control the monochromator by means of sequencing keys. The results are representative data from multiple cells in at least three independent cultures.

iGluR2(Q)flip-L483Y = experiment: Whole-cell voltage clamp recording in HEK293 cells expressing iGluR2; format: cell-based
Protocol: as §1
Patch clamp recordings were carried out using an Axopatch 200A amplifier in the whole cell mode. HEK cells were voltage clamped at −60 mV and hippocampal neurons were current clamped at −65 mV. Pipettes had resistances 2-6 MΩ. For experiments in HEK cells, pipettes were filled with a solution containing (in mM): 145 CsCl, 5 EGTA, 0.5 CaCl2, 1.0 MgCl2 and 10 HEPES at pH7.2 (CsOH). […] Illumination was applied using a TILL Photonics Polychrome V monochromator through a 40×/0.60 W objective (power output: 4.8 mW/mm^2 at 500 nm and 1.8 mW/mm^2 at 380 nm, as measured with a Newport optical power meter). Data was recorded with pClamp software, which was also used to automatically control the monochromator by means of sequencing keys. […]

[1] = Photostationary state determination by NMR with in situ irradiation; format: physicochemical; conditions: D2O, mean±s.e.m., n=3
Protocol: Cis/trans photoisomerization of 2 was studied by ^1H NMR, with in situ irradiation of the sample using a Polychrome V system monochromator (TILL Photonics) containing a 150 W Xenon short arc lamp with an output range of 320-680 nm. The half-power bandwidth was 14 nm. A 500 μl aliquot of a 100 mM sample in D2O was prepared in a screw-capped 528-TR-7 NMR tube (Wilmad). A FT-600-UMT fiber optic cable (NA 0.39) (Thorlabs) was coupled at one end to the monochromator using a custom fitting and the other end inserted into the NMR tube a few millimeters above the solution. Each sample was irradiated at the desired wavelength for 30 minutes to reach the photostationary state and 480 scans were required to obtain reasonable signal-to-noise ratios. The output from the fiber optic cable between 340-480 nm ranged from 0.3-9.0 μW/cm^2. Data were processed by isolating aromatic cis-trans ^1H signals and summing their integrals to 1.0. All data were obtained in triplicate and averaged.

iGluR = experiment: Rates of light-driven channel activation and deactivation (whole-cell patch clamp); format: cell-based; conditions: mean±s.e.m., n=3
Protocol: as §2, with “L-Glutamate, DNQX, and compound 2 were applied as reported in text and figures with complete exchange of the bath solution occurring in less than 10 sec. Compound 2 was not pre-irradiated prior to perfusion, but the bath and coverslip were continuously under illumination as denoted in traces. Following complete exchange of the bath, perfusion of 2 was stopped prior to switching illumination wavelengths.” left out, “The results are representative data from multiple cells in at least three independent cultures.” left out

iGluR5(Q) = target: T2, iGluR5(Q) (Homo sapiens, UniProt P39086); experiment: Whole-cell voltage clamp dose-response in HEK293 cells expressing iGluR5(Q); format: cell-based
T2 construct: expressed in transfected cells; host or cells: HEK293
Protocol: as §1, §2

[2] = test system: cultured rat hippocampal neurons; experiment: Whole-cell current clamp recording of cultured hippocampal neurons; format: cell-based
Protocol: as §2, with “L-Glutamate, DNQX, and compound 2 were applied as reported in text and figures with complete exchange of the bath solution occurring in less than 10 sec. Compound 2 was not pre-irradiated prior to perfusion, but the bath and coverslip were continuously under illumination as denoted in traces. Following complete exchange of the bath, perfusion of 2 was stopped prior to switching illumination wavelengths.” left out, “The results are representative data from multiple cells in at least three independent cultures.” left out

T2 sequence (P39086 31-918): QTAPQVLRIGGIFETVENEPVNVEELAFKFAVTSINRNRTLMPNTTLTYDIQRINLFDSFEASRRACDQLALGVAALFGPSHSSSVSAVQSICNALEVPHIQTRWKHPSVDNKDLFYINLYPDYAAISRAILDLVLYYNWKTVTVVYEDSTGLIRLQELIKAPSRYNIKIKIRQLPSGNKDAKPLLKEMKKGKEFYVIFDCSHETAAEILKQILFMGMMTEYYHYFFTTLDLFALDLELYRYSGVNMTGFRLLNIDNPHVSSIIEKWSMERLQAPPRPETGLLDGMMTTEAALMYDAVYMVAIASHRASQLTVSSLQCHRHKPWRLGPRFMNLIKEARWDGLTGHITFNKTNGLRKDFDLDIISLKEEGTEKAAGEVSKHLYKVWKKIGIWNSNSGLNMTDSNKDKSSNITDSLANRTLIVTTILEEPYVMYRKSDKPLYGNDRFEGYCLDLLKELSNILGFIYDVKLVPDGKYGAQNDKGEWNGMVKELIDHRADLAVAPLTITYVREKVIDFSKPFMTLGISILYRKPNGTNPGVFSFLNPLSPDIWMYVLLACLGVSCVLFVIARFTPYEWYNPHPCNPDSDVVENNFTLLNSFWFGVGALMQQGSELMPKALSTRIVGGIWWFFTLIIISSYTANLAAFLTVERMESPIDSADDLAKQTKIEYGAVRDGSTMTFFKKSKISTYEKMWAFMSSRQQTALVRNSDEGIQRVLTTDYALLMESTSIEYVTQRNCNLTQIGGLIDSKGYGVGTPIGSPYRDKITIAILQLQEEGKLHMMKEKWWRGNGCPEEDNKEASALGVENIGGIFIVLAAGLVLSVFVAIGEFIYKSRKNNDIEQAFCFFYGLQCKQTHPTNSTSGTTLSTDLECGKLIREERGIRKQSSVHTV
T1 sequence (Q13002 32-908): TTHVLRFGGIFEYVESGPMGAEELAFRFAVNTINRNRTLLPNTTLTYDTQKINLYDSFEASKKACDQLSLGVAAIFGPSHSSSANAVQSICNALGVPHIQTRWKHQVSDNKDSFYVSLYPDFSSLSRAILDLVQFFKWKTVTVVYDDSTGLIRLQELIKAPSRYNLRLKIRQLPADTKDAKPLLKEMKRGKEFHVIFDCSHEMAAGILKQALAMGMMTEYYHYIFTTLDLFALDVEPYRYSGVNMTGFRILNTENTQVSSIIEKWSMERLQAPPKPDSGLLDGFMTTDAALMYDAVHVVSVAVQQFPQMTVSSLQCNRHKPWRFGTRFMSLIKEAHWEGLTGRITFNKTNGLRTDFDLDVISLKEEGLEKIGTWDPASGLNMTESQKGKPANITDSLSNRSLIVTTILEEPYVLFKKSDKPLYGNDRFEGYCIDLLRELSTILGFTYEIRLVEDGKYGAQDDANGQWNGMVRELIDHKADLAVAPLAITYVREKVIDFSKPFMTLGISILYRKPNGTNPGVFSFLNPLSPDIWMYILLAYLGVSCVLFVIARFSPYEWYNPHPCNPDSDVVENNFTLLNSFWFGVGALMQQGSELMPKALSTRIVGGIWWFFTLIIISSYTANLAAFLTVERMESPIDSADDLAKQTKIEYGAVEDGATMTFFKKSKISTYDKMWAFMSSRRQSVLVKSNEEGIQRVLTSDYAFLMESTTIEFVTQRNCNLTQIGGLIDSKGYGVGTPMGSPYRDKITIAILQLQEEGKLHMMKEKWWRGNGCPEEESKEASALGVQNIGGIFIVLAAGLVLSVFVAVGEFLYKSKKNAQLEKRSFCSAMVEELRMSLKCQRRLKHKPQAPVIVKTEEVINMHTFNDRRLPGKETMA

Structure (SMILES): N[C@@H](CC(C/C=C/c1ccc(/N=N/c2ccccc2)cc1)C(=O)O)C(=O)O (stereo partly shown) [Compound 2]
- extent of iGluR6 channel activation (wild-type iGluR6(Q); 25 μM): only activated to a small extent
- channel activation (inward currents) depending on wavelength of irradiation (wild-type iGluR6(Q); HEK293, ConA 0.3 mg/mL pretreated, trans- versus cis-state): increased inward currents in the trans-relative to the cis-state
- inward currents in the presence of 250 μM 2 (iGluR2(Q)flip-L483Y; 250 μM, 380 and 500 nm illumination): failed to produce inward currents; also recorded: no effect in either the trans- (500 nm) or cis-state (380 nm)
- photostationary state content of cis-2 ([1]; 380 nm irradiation): 76.3±0.3%
- photostationary state content of trans-2 ([1]; 500 nm irradiation): 89±1%
- rate of deactivation τoff-380nm (iGluR; 380 nm, 1.8 mW/mm^2): 250 ± 14 ms
- rate of activation τon-500nm (iGluR; 500 nm, 4.8 mW/mm^2): 310 ± 15 ms
- efficacy with respect to a 300 μM glutamate evoked response (iGluR5(Q); dose-response curves under 380 and 500 nm light): approximately half-maximal efficacy
- selectivity at iGluR5 over iGluR6 receptors (iGluR5(Q); dose-response curves, iGluR5(Q) versus iGluR6(Q)): high selectivity
- reduction of apparent agonist affinity (EC50) relative to 500 nm (iGluR5(Q); under 380 nm light): ~10 fold
- EC50 (iGluR5(Q); under 500 nm illumination, read-out: apparent agonist affinity (EC50)): 9 µM
- light-controlled action potential firing ([2]; 25 μM, current clamped at −65 mV, no ConA, switching between 380 and 500 nm): sufficient to trigger, and extinguish, sustained trains of action potentials

Structure (SMILES): O=C1N=c2cc([N+](=O)[O-])c([N+](=O)[O-])cc2=NC1=O [DNQX, 6,7-dinitroquinoxaline-2,3-dione, reference compound]
- block of light activation with 2 (wild-type iGluR6(Q); 10 μM DNQX together with 50 μM 2, 380 and 500 nm illumination): Pharmacological block of light activation
- block of the activity of 2 (wild-type iGluR6(Q); HEK293 expressing iGluR6(Q)): competitively blocked
- block of light activation with 2 ([2]; 10 μM DNQX together with 25 μM 2, 380 and 500 nm illumination): Pharmacological block of light activation

Structure (SMILES): N[C@@H](CCC(=O)O)C(=O)O [Glu, reference compound]
- inward current evoked by 300 μM Glu (iGluR2(Q)flip-L483Y; 300 μM): evokes a large inward current
